From publication PMC11943097, “Phytochemical Characterization and Anticancer Activity of Clerodendrum chinense Leaf Extract Against Breast and Cervical Cancer Cells” (International Journal of Molecular Sciences, 2025)
Values after ≈ are worked out from the molar mass of the structure shown. Like-named read-outs stand apart in the source and are kept apart here.

Experiments:
Assay type in all cases: cell-based
RAW 264.7 macrophages = assay: MTT cell viability assay, RAW264.7 cells; conditions: Mus musculus
Method: (§1) MCF-7, HeLa, and RAW264.7 cells were cultured in DMEM supplemented with 10% FBS and 1% penicillin/streptomycin. Cell culture was maintained at 37 °C in a 5% CO2 incubator.
(§2) The assessment of cell viability was performed using an MTT assay to assess the cytotoxic effects of CCL on MCF-7, Hela, and RAW264.7 cells. Initially, MCF-7, HeLa, and RAW264.7 cells were seeded onto 96-well plates at a density of 2 × 10^4 cells/mL. Following a 24-h incubation period, the culture medium was replaced with a serum-free medium containing specified concentrations of CCL, verbascoside, isoverbascoside, and hispidulin ranging from 12.5 to 1000 µg/mL. Following 24, 48, and 72 h of treatment, an MTT solution (0.5 mg/mL in culture medium) was added to each well and incubated at 37 °C for 2 h. The metabolically active cells converted MTT into formazan crystals, which were then dissolved in 100 µL of DMSO per well. Absorbance was recorded at 550 nm using a SpectraMax 3 microplate reader (Molecular Devices, San Jose, CA, USA). The IC50 values were determined using GraphPad Prism v.7.0 (La Jolla, CA, USA). Cell viability was assessed in comparison to untreated control cells using the following equation: Cell viability %=A550sample/A550control×100%

MCF-7 cells = assay: MTT cell viability assay, MCF-7 cells; conditions: Homo sapiens
Method: as §1, §2

HeLa cells = assay: MTT cell viability assay, HeLa cells; conditions: Homo sapiens
Method: as §1, §2

| IC50 (MCF-7 cells; MCF7, MCF-7, 24 h, MTT, read-out: IC50) [mg/L] | IC50 (MCF-7 cells; MCF7, MCF-7, 48 h, MTT, read-out: IC50) [mg/L] | IC50 (MCF-7 cells; MCF7, MCF-7, 72 h, MTT, read-out: IC50) [mg/L] | IC50 (HeLa cells; 24 h, MTT, read-out: IC50) [mg/L] | IC50 (HeLa cells; 48 h, MTT, read-out: IC50) [mg/L] | IC50 (HeLa cells; 72 h, MTT, read-out: IC50) [mg/L] | Structure (SMILES) | IC50 (RAW 264.7 macrophages; RAW264.7, 24 h) [mg/L] | IC50 (RAW 264.7 macrophages; RAW264.7, 48 h) [mg/L] | IC50 (RAW 264.7 macrophages; RAW264.7, 72 h) [mg/L] | IC50 (MCF-7 cells; MCF7, 24 h) [mg/L] | IC50 (MCF-7 cells; MCF7, 48 h) [mg/L] | IC50 (MCF-7 cells; MCF7, 72 h) [mg/L] | IC50 (HeLa cells; 24 h) [mg/L] | IC50 (HeLa cells; 48 h) [mg/L] | IC50 (HeLa cells; 72 h) [mg/L] | IC50 (RAW 264.7 macrophages; RAW264.7, RAW 264.7, 24 h, MTT, read-out: IC50) [mg/L] | IC50 (RAW 264.7 macrophages; RAW264.7, RAW 264.7, 48 h, MTT, read-out: IC50) [mg/L] | IC50 (RAW 264.7 macrophages; RAW264.7, RAW 264.7, 72 h, MTT, read-out: IC50) [mg/L] |
| --- | --- | --- | --- | --- | --- | --- | --- | --- | --- | --- | --- | --- | --- | --- | --- | --- | --- | --- |
| – | – | – | – | – | – | COc1c(O)cc2oc(-c3ccc(O)cc3)cc(=O)c2c1O [Hispidulin] | 99.2 (≈ 330 µM) | 120 (≈ 401 µM) | 180 (≈ 600 µM) | 905 (≈ 3010 µM) | 710 (≈ 2370 µM) | 527 (≈ 1760 µM) | 98.2 (≈ 327 µM) | 119 (≈ 397 µM) | 311 (≈ 1040 µM) | – | – | – |
| 186 (≈ 297 µM) | 184 (≈ 294 µM) | 173 (≈ 277 µM) | 373 (≈ 597 µM) | 291 (≈ 466 µM) | 342 (≈ 547 µM) | C[C@@H]1O[C@@H](O[C@@H]2[C@@H](O)[C@H](OCCc3ccc(O)c(O)c3)O[C@H](CO)[C@H]2OC(=O)/C=C/c2ccc(O)c(O)c2)[C@H](O)[C@H](O)[C@H]1O [Verbascoside] | – | – | – | – | – | – | – | – | – | 432 (≈ 691 µM) | 446 (≈ 714 µM) | 480 (≈ 769 µM) |
